Source: patent US12637478B2, “Compound, preparation method thereof, and antibiotic composition comprising same” (priority 2020, dated 2026)
In brackets after ≈: the same amount, converted by molar mass. Where two headings read alike, the source gives them in different places.

Assays:
S. aureus^MS [1] = assay: MIC by broth microdilution (aerobic pathogens), test strain 1; format: cell-based; settings: Staphylococcus aureus
In short: (§1)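 Broth microdilution followed CLSI M7-A5 against aerobic staphylococcal and enterococcal strains, including vancomycin-resistant isolates. MIC was the lowest concentration inhibiting growth by 90% relative to untreated control.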

S. aureus^MS [2] = assay: MIC by broth microdilution (aerobic pathogens), test strain 2; format: cell-based; settings: Staphylococcus aureus
In short: as §1

S. aureus^MR = assay: MIC by broth microdilution (aerobic pathogens), test strain 3; format: cell-based, Methicillin resistant Staphylococcus aureus; settings: Staphylococcus aureus
Experimental: (§2) The antibacterial activity of the compounds of Examples 1 to 48 of the present invention against aerobic pathogens were evaluated by measuring the minimum concentration of the antibiotic capable of inhibiting bacterial growth by 90% compared to the growth of the non-drug treated control group. MIC was measured by the broth microdilution method based on CLSI standards [Reference: Clinical and Laboratory Standards Institute Document. (2000) Methods for Dilution Antimicrobial Susceptibility Test for Bacteria that Grow Aerobically-Fifth Edition: M7-A5. CLSI, Villanova, PA].
(§3) All 13 strains such as methicillin susceptible Staphylococcus aureus (MSSA), methicillin resistant Staphylococcus aureus (MRSA), Vancomycin resistant Staphylococcus aureus (VRSA), Staphylococcus epidermidis, methicillin resistant Staphylococcus epidermidis, Enterococcus faecalis, Vancomycin resistant Enterococcus faecalis, Enterococcus faecium, Vancomycin resistant Enterococcus faecium were used.

S. aureus^VR = assay: MIC by broth microdilution (aerobic pathogens), test strain 4; format: cell-based, Vancomycin resistant Staphylococcus aureus; settings: Staphylococcus aureus
Experimental: as §2, §3

S. epidermis = assay: MIC by broth microdilution (aerobic pathogens), test strain 5; format: cell-based; settings: Staphylococcus epidermidis
In short: as §1

S. epidermis^MR = assay: MIC by broth microdilution (aerobic pathogens), test strain 6; format: cell-based, Methicillin resistant Staphylococcus epidermidis; settings: Staphylococcus epidermidis
In short: as §1

E. faecalis = assay: MIC by broth microdilution (aerobic pathogens), test strain 7; format: cell-based; settings: Enterococcus faecalis
In short: as §1

E. faecalis^VanA = assay: MIC by broth microdilution (aerobic pathogens), test strain 8; format: cell-based, Vancomycin resistant Enterococcus faecalis; settings: Enterococcus faecalis
In short: as §1

E. faecalis^LinR = assay: MIC by broth microdilution (aerobic pathogens), test strain 9; format: cell-based, Linezolid resistant Enterococcus faecalis; settings: Enterococcus faecalis
In short: as §1

E. faecium = assay: MIC by broth microdilution (aerobic pathogens), test strain 10; format: cell-based; settings: Enterococcus faecium
In short: as §1

E. faecium^VRE = assay: MIC by broth microdilution (aerobic pathogens), test strain 11; format: cell-based, Vancomycin resistant Enterococcus faecium; settings: Enterococcus faecium; test strain 11, E. faecium^VRE (vancomycin resistant); read-out: MIC
Experimental: as §2, §3

E. faecium^LinR = assay: MIC by broth microdilution (aerobic pathogens), test strain 12; format: cell-based, Linezolid resistant Enterococcus faecium; settings: Enterococcus faecium
In short: as §1

C. difficile 152 = assay: MIC by agar dilution against Clostridioides difficile, test strain 14; format: cell-based
C. difficile 159 = assay: MIC by agar dilution against Clostridioides difficile, test strain 15; format: cell-based
C. difficile 161 = assay: MIC by agar dilution against Clostridioides difficile, test strain 16; format: cell-based; settings: test strain 16, C. difficile 161, anaerobic, agar dilution, read-out: MIC
C. difficile 173 = assay: MIC by agar dilution against Clostridioides difficile, test strain 17; format: cell-based
C. difficile 174 = assay: MIC by agar dilution against Clostridioides difficile, test strain 18; format: cell-based
C. difficile 181 = assay: MIC by agar dilution against Clostridioides difficile, test strain 19; format: cell-based
M. tuberculosis = assay: MIC by resazurin (REMA) assay against Mycobacterium, test strain 20; format: cell-based
Experimental: (§4) In order to test the antibacterial activity, the medium of Mycobacterium cultured to late log phase was diluted so as to be 4.0×10^5 cells/well in Middlebrook 7H10 agar medium (Difco) supplemented with 10% oleic acid, albumin, dextrose, catalase (OADC, Becton Dickinson) and 0.05% Tween 80 (Sigma Aldrich) and was dispensed into a 96-well plate. The compounds were treated so that DMSO was 1%, and after 3 days, a 0.025% resazurin (REMA) solution was dispensed, and the growth of the bacteria was confirmed after culturing. The MIC value was measured for the antibacterial activity through resazurin (excitation 530 nm, emission 590 nm).

C. difficile 9689 = assay: MIC by agar dilution against Clostridioides difficile, test strain 13; format: cell-based
M. avium = assay: MIC by resazurin (REMA) assay against Mycobacterium, test strain 21; format: cell-based
Experimental: as §4

M. intracelluare = assay: MIC by resazurin (REMA) assay against Mycobacterium, test strain 22; format: cell-based; settings: Mycobacterium intracellulare
Experimental: as §4

M. abscessus = assay: MIC by resazurin (REMA) assay against Mycobacterium, test strain 23; format: cell-based; settings: Mycobacteroides abscessus
Experimental: as §4

[3] = test strain 1, S. aureus^MS, read-out: MIC
[4] = test strain 2, S. aureus^MS, read-out: MIC
[5] = test strain 3, S. aureus^MR (methicillin resistant), read-out: MIC
[6] = test strain 4, S. aureus^VR (vancomycin resistant), read-out: MIC
[7] = test strain 5, S. epidermis, read-out: MIC
[8] = test strain 7, E. faecalis, read-out: MIC
[9] = test strain 8, E. faecalis^VanA (vancomycin resistant), read-out: MIC
[10] = test strain 10, E. faecium, read-out: MIC
[11] = test strain 12, E. faecium^LinR (linezolid resistant), read-out: MIC
[12] = test strain 14, C. difficile 152, anaerobic, agar dilution, read-out: MIC
[13] = test strain 15, C. difficile 159, anaerobic, agar dilution, read-out: MIC
[14] = test strain 17, C. difficile 173, anaerobic, agar dilution, read-out: MIC
[15] = test strain 18, C. difficile 174, anaerobic, agar dilution, read-out: MIC
[16] = test strain 19, C. difficile 181, anaerobic, agar dilution, read-out: MIC

SMILES	MIC (S. aureus^MS [1]; [3]) [µg/mL]	MIC (S. aureus^MS [2]; [4]) [µg/mL]	MIC (S. aureus^MR; [5]) [µg/mL]	MIC (S. aureus^VR; [6]) [µg/mL]	MIC (S. epidermis; [7]) [µg/mL]	MIC (E. faecalis; [8]) [µg/mL]	MIC (E. faecalis^VanA; [9]) [µg/mL]	MIC (E. faecium; [10]) [µg/mL]	MIC (E. faecium^VRE) [µg/mL]	MIC (E. faecium^LinR; [11]) [µg/mL]	MIC (C. difficile 152; [12]) [µg/mL]	MIC (C. difficile 159; [13]) [µg/mL]	MIC (C. difficile 161) [µg/mL]	MIC (C. difficile 173; [14]) [µg/mL]	MIC (C. difficile 174; [15]) [µg/mL]	MIC (C. difficile 181; [16]) [µg/mL]	MIC (S. epidermis^MR) [µg/mL]	MIC (E. faecalis^LinR) [µg/mL]	other results
C/C=C(\NC(=O)c1csc(-c2csc(-c3ccc4c(n3)-c3csc(n3)[C@H]([C@@H](C)O)NC(=O)c3csc(n3)[C@H](C(C)C)NC(=O)c3csc(n3)/C(=C/C)NC(=O)[C@H]([C@@H](C)O)NC(=O)c3csc-4n3)n2)n1)C(=O)NCCn1c([N+](=O)[O-])cnc1C [Compound 3]	0.0625 (≈ 0.0504 µM)	< 0.0625	1 (≈ 0.807 µM)	0.25 (≈ 0.202 µM)	0.25 (≈ 0.202 µM)	0.0625 (≈ 0.0504 µM)	0.125 (≈ 0.101 µM)	0.125 (≈ 0.101 µM)	0.25 (≈ 0.202 µM)	0.25 (≈ 0.202 µM)	1 (≈ 0.807 µM)	1 (≈ 0.807 µM)	0.25 (≈ 0.202 µM)	0.5 (≈ 0.403 µM)	0.25 (≈ 0.202 µM)	0.5 (≈ 0.403 µM)	–	–	MIC (S. epidermis^MR; test strain 6, S. epidermis^MR (methicillin resistant), read-out: MIC): 0.125 µg/mL (≈ 0.101 µM); MIC (E. faecalis^LinR; test strain 9, E. faecalis^LinR (linezolid resistant), read-out: MIC): 0.125 µg/mL (≈ 0.101 µM); MIC (M. tuberculosis): 0.1 µg/mL (≈ 0.0807 µM)
C/C=C1\NC(=O)[C@H]([C@@H](C)O)NC(=O)c2csc(n2)-c2ccc(-c3nc(-c4nc(C(=O)NC5(C(=O)NCCN6C(=O)CNC6=O)CC5)cs4)cs3)nc2-c2csc(n2)[C@H]([C@@H](C)O)NC(=O)c2csc(n2)[C@H](C(C)C)NC(=O)c2csc1n2 [Compound 5]	–	–	–	–	–	–	–	–	–	–	–	–	–	–	–	–	0.5 (≈ 0.412 µM)	0.5 (≈ 0.412 µM)	MIC (S. aureus^MS [1]): 0.25 µg/mL (≈ 0.206 µM); MIC (S. aureus^MS [2]): 0.25 µg/mL (≈ 0.206 µM); MIC (S. aureus^MR): 1 µg/mL (≈ 0.825 µM); MIC (S. aureus^VR): 1 µg/mL (≈ 0.825 µM); MIC (S. epidermis): 0.5 µg/mL (≈ 0.412 µM); MIC (E. faecalis): 0.25 µg/mL (≈ 0.206 µM); MIC (E. faecalis^VanA): 0.5 µg/mL (≈ 0.412 µM); MIC (E. faecium): 1 µg/mL (≈ 0.825 µM); MIC (E. faecium^LinR): 0.5 µg/mL (≈ 0.412 µM); MIC (C. difficile 9689; 9689): 1 µg/mL (≈ 0.825 µM); MIC (C. difficile 152; 152): 0.5 µg/mL (≈ 0.412 µM); MIC (C. difficile 159; 159): 1 µg/mL (≈ 0.825 µM); MIC (C. difficile 173; 173): 1 µg/mL (≈ 0.825 µM); MIC (C. difficile 174; 174): 0.25 µg/mL (≈ 0.206 µM); MIC (C. difficile 181; 181): 0.125 µg/mL (≈ 0.103 µM); MIC (M. avium): 0.043 µg/mL (≈ 0.0355 µM); MIC (M. intracelluare): 0.155 µg/mL (≈ 0.128 µM); MIC (M. abscessus): 0.504 µg/mL (≈ 0.416 µM)
C/C=C1\NC(=O)[C@H]([C@@H](C)O)NC(=O)c2csc(n2)-c2ccc(-c3nc(-c4nc(C(=O)NC5(C(=O)NCCCN6CCOCC6)CC5)cs4)cs3)nc2-c2csc(n2)[C@H]([C@@H](C)O)NC(=O)c2csc(n2)[C@H](C(C)C)NC(=O)c2csc1n2 [Compound 7]	0.25 (≈ 0.206 µM)	0.25 (≈ 0.206 µM)	0.5 (≈ 0.412 µM)	1 (≈ 0.824 µM)	0.0625 (≈ 0.0515 µM)	0.25 (≈ 0.206 µM)	0.25 (≈ 0.206 µM)	0.25 (≈ 0.206 µM)	1 (≈ 0.824 µM)	0.5 (≈ 0.412 µM)	0.06 (≈ 0.0494 µM)	0.25 (≈ 0.206 µM)	0.5 (≈ 0.412 µM)	0.06 (≈ 0.0494 µM)	0.06 (≈ 0.0494 µM)	0.25 (≈ 0.206 µM)	0.125 (≈ 0.103 µM)	0.125 (≈ 0.103 µM)	MIC (C. difficile 9689; test strain 13, C. difficile 9689, anaerobic, agar dilution, read-out: MIC): 0.25 µg/mL (≈ 0.206 µM); MIC (M. avium; test strain 21, M. avium, resazurin, read-out: MIC): 0.083 µg/mL (≈ 0.0684 µM); MIC (M. intracelluare; test strain 22, M. intracelluare, resazurin, read-out: MIC): 0.107 µg/mL (≈ 0.0882 µM); MIC (M. abscessus; test strain 23, M. abscessus, resazurin, read-out: MIC): 0.322 µg/mL (≈ 0.265 µM)
